The values that follow come from US8871767B2, “2-arylimidazo[1,2-B]pyridazine, 2-phenylimidazo[1,2-A]pyridine, and 2-phenylimidazo[1,2-A]pyrazine derivatives” (Hengrui (USA) Ltd., priority 2010, dated 2014).

In experiment [1] the test system is Hedgehog pathway activation on 10T1/2/Smo#3 cells (C3H10T1/2 cells transfected with human Smoothened receptor). In words: Hedgehog pathway activation on 10T1/2/Smo#3 cells measured by ALP activity. The class given is cell-based. Particulars: Mus musculus, C3H 10T1/2, 10T1/2/Smo#3 cells. Put shortly:
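Inhibition of alkaline phosphatase induction, read fluorometrically from 4-methylumbelliferyl phosphate conversion, gave IC50 values; CellTiter-Blue tracked viability in parallel. Cells were the human Smo-transfected 10T1/2/Smo#3 pool, stimulated by 10-20% hShh conditioned medium or the Smo agonist SAG (500 nM).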

Experiment [2] concerns Hedgehog pathway activation (GLi-luciferase reporter) in Shh Light II reporter cells. The experiment in a line: Hedgehog pathway activation on Shh Light II reporter cells measured by luciferase activity. The format is cell-based. The settings on record: Mus musculus, Shh Light II. Put shortly: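 Shh Light II reporter cells carrying a hedgehog-responsive GLi-luciferase reporter were stimulated either with 500 nM SAG, a direct Smoothened agonist, or with conditioned media containing human Sonic Hedgehog (hShh). Test compounds were evaluated for blocking this pathway activation, quantified by luciferase activity. Cell viability was monitored in parallel with the Celltiter-Blue® assay.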

The mark [3] stands for this setting: measured by ALP activity, read-out: ALP (IC50, inhibition of Hedgehog pathway activation).
Where [4] appears, read: hShh activation, read-out: Shh (IC50, inhibition of Hedgehog pathway activation).
Setting [5] is: hShh activation, ALP activity, read-out: 10T1/2/Smo#3 ALP activity (hShh Activation).
[6] abbreviates: SAG activation (500 nM SAG), read-out: Shh Light II luciferase activity (SAG activation).
The mark [7] stands for this setting: hShh activation, read-out: Shh Light II luciferase activity (hShh activation).

Molecules are shown by their SMILES. Like-named read-outs stand apart in the source and are kept apart here. Bounds are passed on as bounds.

Consider `COc1cnccc1-c1ccc2nc(-c3ccc(C(F)(F)F)c(NC(=O)C(C)(C)C)c3)cn2n1` [Example 382, N-(5-(6-(3-methoxypyridin-4-yl)imidazo[1,2-b]pyridazin-2-yl)-2-(trifluoromethyl)phenyl)pivalamide], for which the IC50 was determined as 536 nM in experiment [1] (setting [3]) and 1220 nM in experiment [2] (setting [4]).

On to `Cc1ccncc1-c1ccc2nc(-c3ccc(C(F)(F)F)c(NC(=O)C(C)(C)C)c3)cn2n1` [Example 383, N-(5-(6-(4-methylpyridin-3-yl)imidazo[1,2-b]pyridazin-2-yl)-2-(trifluoromethyl)phenyl)pivalamide], for which the IC50 in experiment [1] (setting [3]) turned out to be 141 nM; in experiment [2] (setting [4]) it was 193 nM.

On to `COc1ccncc1-c1ccc2nc(-c3ccc(C(F)(F)F)c(NC(=O)C(C)(C)C)c3)cn2n1` [Example 384, N-(5-(6-(4-methoxypyridin-3-yl)imidazo[1,2-b]pyridazin-2-yl)-2-(trifluoromethyl)phenyl)pivalamide], for which the values for the IC50 in experiment [1] (setting [3]) and in experiment [2] (setting [4]) were 227 nM and 689 nM, respectively.

`CC(C)(C)C(=O)Nc1cc(-c2cn3nc(-c4cncc5ccccc45)ccc3n2)ccc1C(F)(F)F` [Example 385, N-(5-(6-(isoquinolin-4-yl)imidazo[1,2-b]pyridazin-2-yl)-2-(trifluoromethyl)phenyl)pivalamide]: the IC50 is 300 to 3000 nM in experiment [1] (setting [5]); 1380 nM in experiment [1] (setting [3]); 300 to 3000 nM in experiment [2] (setting [6]); 778 nM in experiment [2] (setting [4]); 300 to 3000 nM in experiment [2] (setting [7]).

Regarding `CC(C)(C)C(=O)Nc1cc(-c2cn3nc(-c4cnccc4Cl)ccc3n2)ccc1C(F)(F)F` [Example 386, N-(5-(6-(4-chloropyridin-3-yl)imidazo[1,2-b]pyridazin-2-yl)-2-(trifluoromethyl)phenyl)pivalamide], the IC50 in experiment [1] (setting [3]) amounted to 1710 nM; in experiment [2] (setting [4]) it was 3090 nM.

Turning to `Cc1ncc(-c2cn3nc(-c4ccccc4F)ccc3n2)cc1NC(=O)C(C)(C)C` [Example 390, N-(5-(6-(2-fluorophenyl)imidazo[1,2-b]pyridazin-2-yl)-2-methylpyridin-3-yl)pivalamide], the IC50 is 300 to 3000 nM in experiment [1] (setting [5]); 469 nM in experiment [1] (setting [3]); 300 to 3000 nM in experiment [2] (setting [6]); 270 nM in experiment [2] (setting [4]); less than 300 nM in experiment [2] (setting [7]).

On to `CN[C@@H]1CCN(c2ccc3nc(-c4ccc(C)c(NC(=O)C(C)(C)C)c4)cn3n2)C1` [Example 391, (R)-N-(2-methyl-5-(6-(3-(methylamino)pyrrolidin-1-yl)imidazo[1,2-b]pyridazin-2-yl)phenyl)pivalamide], for which the IC50 in experiment [1] (setting [5]) was less than 300 nM; in experiment [1] (setting [3]), 123 nM; in experiment [2] (setting [6]), 300 to 3000 nM; in experiment [2] (setting [4]) it was 57 nM; in experiment [2] (setting [7]), less than 300 nM.

With `CN[C@H]1CCN(c2ccc3nc(-c4ccc(C)c(NC(=O)C(C)(C)C)c4)cn3n2)C1` [Example 392, (S)-N-(2-methyl-5-(6-(3-(methylamino)pyrrolidin-1-yl)imidazo[1,2-b]pyridazin-2-yl)phenyl)pivalamide], the IC50 in experiment [1] (setting [3]) is 93 nM; in experiment [2] (setting [4]), 77 nM.

Turning to `CCN[C@@H]1CCN(c2ccc3nc(-c4ccc(C)c(NC(=O)C(C)(C)C)c4)cn3n2)C1` [Example 393, (R)-N-(5-(6-(3-(ethylamino)pyrrolidin-1-yl)imidazo[1,2-b]pyridazin-2-yl)-2-methylphenyl)pivalamide], the IC50 is less than 300 nM in experiment [1] (setting [5]); 34 nM in experiment [1] (setting [3]); 300 to 3000 nM in experiment [2] (setting [6]); 31 nM in experiment [2] (setting [4]); less than 300 nM in experiment [2] (setting [7]).

As to `CCN[C@H]1CCN(c2ccc3nc(-c4ccc(C)c(NC(=O)C(C)(C)C)c4)cn3n2)C1` [Example 394, (S)-N-(5-(6-(3-(ethylamino)pyrrolidin-1-yl)imidazo[1,2-b]pyridazin-2-yl)-2-methylphenyl)pivalamide], the IC50 was 189 nM in experiment [1] (setting [3]) and 41 nM in experiment [2] (setting [4]).

With `Cc1ccc(-c2cn3nc(-c4cccc(F)c4C(F)(F)F)ccc3n2)cc1NC(=O)C(C)(C)C` [Example 395, N-(5-(6-(3-fluoro-2-(trifluoromethyl)phenyl)imidazo[1,2-b]pyridazin-2-yl)-2-methylphenyl)pivalamide], the figures for the IC50 in experiment [1] (setting [3]) and in experiment [2] (setting [4]) were 87 nM and 15 nM, respectively.

Turning to `Cc1ccc(-c2cn3nc(-c4ccc(F)cc4C(F)(F)F)ccc3n2)cc1NC(=O)C(C)(C)C` [Example 396, N-(5-(6-(4-fluoro-2-(trifluoromethyl)phenyl)imidazo[1,2-b]pyridazin-2-yl)-2-methylphenyl)pivalamide], the IC50 is 82 nM in experiment [1] (setting [3]) and 31 nM in experiment [2] (setting [4]).

As for `Cc1ccc(-c2cn3nc(-c4c(F)cccc4C(F)(F)F)ccc3n2)cc1NC(=O)C(C)(C)C` [Example 397, N-(5-(6-(2-fluoro-6-(trifluoromethyl)phenyl)imidazo[1,2-b]pyridazin-2-yl)-2-methylphenyl)pivalamide], the IC50 in experiment [1] (setting [5]) is less than 300 nM; in experiment [1] (setting [3]) it was 315 nM; in experiment [2] (setting [6]), less than 300 nM; in experiment [2] (setting [4]), 73 nM; in experiment [2] (setting [7]), less than 300 nM.

As for `Cc1ccc(-c2cn3nc(-c4cc(O)ccc4C(F)(F)F)ccc3n2)cc1NC(=O)C(C)(C)C` [Example 399, N-(5-(6-(5-hydroxy-2-(trifluoromethyl)phenyl)imidazo[1,2-b]pyridazin-2-yl)-2-methylphenyl)pivalamide], the IC50 in experiment [1] (setting [5]) was less than 300 nM; in experiment [1] (setting [3]) it was 175 nM; in experiment [2] (setting [6]), less than 300 nM; in experiment [2] (setting [4]), 105 nM; in experiment [2] (setting [7]), less than 300 nM.

Turning to `Cc1ccc(-c2cn3nc(-c4ncccc4C(F)(F)F)ccc3n2)cc1NC(=O)C(C)(C)C` [Example 400, N-(2-methyl-5-(6-(3-(trifluoromethyl)pyridin-2-yl)imidazo[1,2-b]pyridazin-2-yl)phenyl)pivalamide], the IC50 in experiment [1] (setting [5]) was less than 300 nM; in experiment [1] (setting [3]), 39 nM; in experiment [2] (setting [6]) it was less than 300 nM; in experiment [2] (setting [4]), 11 nM; in experiment [2] (setting [7]), less than 300 nM.

Take `Cc1ccc(-c2cn3nc(-c4ccc(-c5ccc(Cl)nc5)nc4)ccc3n2)cc1NC(=O)C(C)(C)C` [Example 401, N-(5-(6-(6′-chloro-2,3′-bipyridin-5-yl)imidazo[1,2-b]pyridazin-2-yl)-2-methylphenyl)pivalamide]: the IC50 was found to be 234 nM in experiment [1] (setting [3]) and 400 nM in experiment [2] (setting [4]).

In the case of `CCOC(=O)COc1cccc(-c2ccc3nc(-c4ccc(C)c(NC(=O)C(C)(C)C)c4)cn3n2)c1C(F)(F)F` [Example 410, ethyl 2-(3-(2-(4-methyl-3-pivalamidophenyl)imidazo[1,2-b]pyridazin-6-yl)-2-(trifluoromethyl)phenoxy)acetate], the IC50 in experiment [1] (setting [5]) was 300 to 3000 nM; in experiment [1] (setting [3]), 403 nM; in experiment [2] (setting [6]) it was 300 to 3000 nM; in experiment [2] (setting [4]), 121 nM; in experiment [2] (setting [7]), less than 300 nM.

Take `CCOC(=O)COc1ccc(-c2ccc3nc(-c4ccc(C)c(NC(=O)C(C)(C)C)c4)cn3n2)c(C(F)(F)F)c1` [Example 411, ethyl 2-(4-(2-(4-methyl-3-pivalamidophenyl)imidazo[1,2-b]pyridazin-6-yl)-3-(trifluoromethyl)phenoxy)acetate]: the IC50 in experiment [1] (setting [3]) worked out at 679 nM; in experiment [2] (setting [4]), 251 nM.
